Measured values published in patent US7358402B2, “Reduced coenzyme Q10 crystal with excellent stability and composition containing said reduced coenzyme Q10 crystal” (Kaneka Corporation, priority 2003, dated 2008).

Experiment: Plasma concentration of reduced coenzyme Q10 after oral administration to rats
Type: in vivo
Settings: SD rats, male, oral 30 mg/kg as suspension with rapeseed oil (1:2) in 0.2% Tween 80
Protocol: Using the reduced coenzyme Q10 obtained in Example 1 and the reduced coenzyme Q10 obtained in Comparative Example 1, the blood concentrations of reduced coenzyme Q10 were measured when they were orally administered to rats. Each samples and rapeseed oil were added to aqueous solution of 0.2% Tween 80 to prepare suspension in which reduced coenzyme Q10:rapeseed oil=1:2. The suspension was orally administered to SD rats (male, 6 rats in one group) forcibly using a stomach sonde in 30 mg (reduced coenzyme Q10)/kg (rat body weight). Thereafter, the blood was sampled with time, and the plasma concentration of reduced coenzyme Q10 was measured by HPLC.

| SMILES | Tmax, time to maximum plasma concentration (listed as Reduced coenzyme Q10 crystals obtained in Example 1, 30 mg/kg) [h] | Tmax, time to maximum plasma concentration (listed as Reduced coenzyme Q10 crystals obtained in Comparative Example 1, 30 mg/kg) [h] |
| --- | --- | --- |
| COc1c(O)c(C)c(C/C=C(\C)CC/C=C(\C)CC/C=C(\C)CC/C=C(\C)CC/C=C(\C)CC/C=C(\C)CC/C=C(\C)CC/C=C(\C)CC/C=C(\C)CCC=C(C)C)c(O)c1OC [Crystals obtained in Example 1, reduced coenzyme Q10] | 4 |  |
| COc1c(O)c(C)c(C/C=C(\C)CC/C=C(\C)CC/C=C(\C)CC/C=C(\C)CC/C=C(\C)CC/C=C(\C)CC/C=C(\C)CC/C=C(\C)CC/C=C(\C)CCC=C(C)C)c(O)c1OC [Crystals obtained in Comparative Example 1] [reduced coenzyme Q10] |  | 8 |
